Converted amounts (≈) assume the structure as drawn.
Assays:
Format in all cases: cell-based
[1] = system: Staphylococcus aureus 209 P; assay: Antibacterial spectra, MIC; conditions: 10^6 cells/ml, Gram +, read-out: MIC
[2] = system: S. aureus IID 670 (Terajima); assay: Antibacterial spectra, MIC; conditions: Staphylococcus aureus, IID670; 10^6 cells/ml; Gram +; read-out: MIC
S. aureus Smith = assay: Antibacterial spectra, MIC; conditions: Staphylococcus aureus; 10^6 cells/ml; Gram +; read-out: MIC
S. epidermidis IID 866 = assay: Antibacterial spectra, MIC; conditions: Staphylococcus epidermidis, IID866; 10^6 cells/ml; Gram +; read-out: MIC
E. coli ML 4707 = assay: Antibacterial spectra, MIC; conditions: Escherichia coli, ML4707; 10^6 cells/ml; Gram -
Procedure: (§1) The antibacterial test was carried out according to the method designated by Japan Society of Chemotherapy.

E. faecalis IID 682 = assay: Antibacterial spectra, MIC; conditions: Enterococcus faecalis, IID682; 10^6 cells/ml; Gram +
Procedure: as §1

[3] = system: Proteus vulgaris IFO 3167; assay: Antibacterial spectra, MIC; conditions: IFO3167, 10^6 cells/ml, Gram -
Procedure: as §1

Shigella sonnei IID 969 = assay: Antibacterial spectra, MIC; conditions: IID969, 10^6 cells/ml, Gram -
Procedure: as §1

[4] = system: Streptococcus pyogenes (S-8); assay: Antibacterial spectra, MIC; conditions: 10^6 cells/ml, Gram +
Procedure: as §1

S. pyogenes IID 692 = assay: Antibacterial spectra, MIC; conditions: Streptococcus pyogenes, IID692; 10^6 cells/ml; Gram +; read-out: MIC
S. pneumoniae IID 552 = assay: Antibacterial spectra, MIC; conditions: Streptococcus pneumoniae, IID552; 10^6 cells/ml; Gram +; read-out: MIC
[5] = system: Escherichia coli NIHJ JC-2; assay: Antibacterial spectra, MIC; conditions: NIHJJC2
E. coli ATCC 10536 = assay: Antibacterial spectra, MIC; conditions: Escherichia coli, ATCC10536
[6] = system: Morganella morganii IID 602; assay: Antibacterial spectra, MIC; conditions: IID602, 10^6 cells/ml, Gram -, read-out: MIC
K. pneumoniae 1-220S = assay: Antibacterial spectra, MIC; conditions: Klebsiella pneumoniae, 1220S; 10^6 cells/ml; Gram -; read-out: MIC
[7] = system: Citrobacter freundii IID 976; assay: Antibacterial spectra, MIC; conditions: IID976, 10^6 cells/ml, Gram -, read-out: MIC
[8] = system: Serratia marcescens IID 618; assay: Antibacterial spectra, MIC; conditions: IID618, 10^6 cells/ml, Gram -, read-out: MIC
[9] = system: Pseudomonas aeruginosa V-1; assay: Antibacterial spectra, MIC; conditions: V1, 10^6 cells/ml, Gram -, read-out: MIC
P. aeruginosa IFO 12689 = assay: Antibacterial spectra, MIC; conditions: Pseudomonas aeruginosa, IFO12689; 10^6 cells/ml; Gram -; read-out: MIC
P. aeruginosa IID 1210 = assay: Antibacterial spectra, MIC; conditions: Pseudomonas aeruginosa, IID1210; 10^6 cells/ml; Gram -; read-out: MIC
[10] = system: Acinetobacter anitratus IID 876; assay: Antibacterial spectra, MIC; conditions: Acinetobacter calcoaceticus, IID876; 10^6 cells/ml; Gram -; read-out: MIC
[11] = system: Alcaligenes faecalis 0114002; assay: Antibacterial spectra, MIC; conditions: 10^6 cells/ml, Gram -, read-out: MIC
[12] = system: Bacteroides fragilis GM 7000; assay: Antibacterial spectra, MIC; conditions: GM7000, 10^6 cells/ml, Gram -, read-out: MIC
B. fragilis 25285 = assay: Antibacterial spectra, MIC; conditions: Bacteroides fragilis, 10^6 cells/ml, Gram -, read-out: MIC
[13] = system: B. thetaiotaomicron (0661); assay: Antibacterial spectra, MIC; conditions: Bacteroides thetaiotaomicron; 10^6 cells/ml; Gram -; read-out: MIC
B. vulgatus KYA 29327 = assay: Antibacterial spectra, MIC; conditions: Phocaeicola vulgatus, KYA29327; 10^6 cells/ml; Gram -; read-out: MIC
[14] = system: Fusobacterium mortiferum 4249; assay: Antibacterial spectra, MIC; conditions: 10^6 cells/ml, Gram -, read-out: MIC
F. necrophorum S-45 = assay: Antibacterial spectra, MIC; conditions: Fusobacterium necrophorum, S45; 10^6 cells/ml; Gram -; read-out: MIC
[15] = system: Eubacterium lentum GAI 5242; assay: Antibacterial spectra, MIC; conditions: Eggerthella lenta, GAI5242
[16] = system: Propionibacterium acens 11828; assay: Antibacterial spectra, MIC; conditions: 10^6 cells/ml, Gram +, read-out: MIC
[17] = system: Peptococcus magnus KY 017; assay: Antibacterial spectra, MIC; conditions: Finegoldia magna, KY017; 10^6 cells/ml; Gram +; read-out: MIC
C. perfringens KYA 13123 = assay: microbe, parasite or virus in culture; conditions: Clostridium perfringens, KYA13123
[18] = system: Peptostreptococcus anaerobius KYA 27337; assay: Antibacterial spectra, MIC; conditions: KYA27337, 10^6 cells/ml, Gram +, read-out: MIC
Pst. micros UPI 5464-1 = assay: Antibacterial spectra, MIC; conditions: Parvimonas micra, UPI54641; 10^6 cells/ml; Gram +; read-out: MIC
[19] = system: Veillonella parvula KYA 10790; assay: Antibacterial spectra, MIC; conditions: KYA10790, 10^6 cells/ml, Gram -, read-out: MIC

CCOc1c(N2CCNCC2)c(F)cc2c(=O)c(C(=O)O)cn(C3CC3)c12 [Exp. 18, 1-cyclopropyl-6-fluoro-1,4-dihydro-8-ethoxy-4-oxo-7-(1-piperazinyl)-3-quinolinecarboxylic acid]
MIC [1]: 0.2 µg/mL (≈ 0.533 µM)
MIC [2]: 0.39 µg/mL (≈ 1.04 µM)
MIC (S. aureus Smith): 0.39 µg/mL (≈ 1.04 µM)
MIC (S. epidermidis IID 866): 0.39 µg/mL (≈ 1.04 µM)
MIC (E. coli ML 4707): ≤ 0.05 µg/mL
MIC (E. faecalis IID 682): 1.56 µg/mL
MIC [3]: ≤ 0.05 µg/mL
MIC (Shigella sonnei IID 969): ≤ 0.05 µg/mL
MIC [4]: 1.56 µg/mL
MIC (S. pyogenes IID 692): 3.13 µg/mL (≈ 8.34 µM)
MIC (S. pneumoniae IID 552): 0.78 µg/mL (≈ 2.08 µM)
MIC [5]: ≤ 0.05 µg/mL
MIC (E. coli ATCC 10536): ≤ 0.05 µg/mL
MIC [6]: 0.39 µg/mL (≈ 1.04 µM)
MIC (K. pneumoniae 1-220S): 0.2 µg/mL (≈ 0.533 µM)
MIC [7]: 0.1 µg/mL (≈ 0.266 µM)
MIC [8]: 0.2 µg/mL (≈ 0.533 µM)
MIC [9]: 0.78 µg/mL (≈ 2.08 µM)
MIC (P. aeruginosa IFO 12689): 3.13 µg/mL (≈ 8.34 µM)
MIC (P. aeruginosa IID 1210): 6.25 µg/mL (≈ 16.6 µM)
MIC [10]: 0.1 µg/mL (≈ 0.266 µM)
MIC [11]: 0.78 µg/mL (≈ 2.08 µM)
MIC [12]: 3.13 µg/mL (≈ 8.34 µM)
MIC (B. fragilis 25285): 3.13 µg/mL (≈ 8.34 µM)
MIC [13]: 12.5 µg/mL (≈ 33.3 µM)
MIC (B. vulgatus KYA 29327): 12.5 µg/mL (≈ 33.3 µM)
MIC [14]: 3.13 µg/mL (≈ 8.34 µM)
MIC (F. necrophorum S-45): 3.13 µg/mL (≈ 8.34 µM)
MIC [15]: 1.56 µg/mL (≈ 4.16 µM)
MIC [16]: 12.5 µg/mL (≈ 33.3 µM)
MIC [17]: 0.78 µg/mL (≈ 2.08 µM)
MIC (C. perfringens KYA 13123): 1.56 µg/mL (≈ 4.16 µM)
MIC [18]: 3.13 µg/mL (≈ 8.34 µM)
MIC (Pst. micros UPI 5464-1): 0.78 µg/mL (≈ 2.08 µM)
MIC [19]: 0.78 µg/mL (≈ 2.08 µM)

— US5043450A, “8-alkoxyquinolonecarboxylic acid and salts thereof” (priority 1986, dated 1991)
